Results from patent publication US20240228507A1, “GREEN SOLVENTS FOR CHEMICAL REACTIONS” (ECOLE POLYTECHNIQUE FÉDÉRALE DE LAUSANNE (EPFL), priority 2021, published 2024).

Key:
Assay type in all cases: physicochemical
[1] = Stability of DFX under basic conditions (GC-FID/GC-MS, colour change); design: key to Reaction (Y/N): *Reaction (Y/N) means color change compared to blank solution.; *Reaction (Y/N) means color change compared to blank solution
Procedure: To assess DFX stability under basic conditions, we tested a series of organic and inorganic bases at 80° C. and 110° C. for maximum 48 h (Table 6). Visual color change compared to a blank solution of pure DFX indicated some reactions were occurring. After 0.5 h, 24 h, 48 h of exposure, the samples were injected in GC-FID and GC-MS and the area of DFX was compared with the one in blank sample using decane as the internal standard. As a result of this experiment, we identified some potential limitations of this emerging solvent. Specifically, inorganic bases such as K2CO3, NaOH, CsCO3 led to the highest extent of degradation (maximum 21% after 48 h). Triethylamine (NEt3) caused less than 5% of degradation, but led to the formation of dark solution as well as K2CO3, NaOH, CsCO3. Probably, impurities existing in DFX (95% pure) also contribute to a color change as they could interact with bases.

[2] = Stability under hydrogenation conditions
Procedure: It is important to note that, DFX was stable under hydrogenation conditions (40 bar of H2, 70° C., 24 h), thus it can be used in reactions requiring high pressure of H2, elevated temperature, and/or long reaction time, which is a very desirable property for biomass-derived solvents.
40 bar of H2, 70° C., 24 h • 2. 40 bar of H2, 250° C., 3 h

[3] = Stability under acidic conditions; conditions: 0.8M HCl
[4] = Miscibility with different solvents; design: key: “*” indicating—not miscible; conditions: Table 1d; blank cell = miscible
[5] = Kamlet-Abboud-Taft solvatochromic parameters (dye absorption spectra); conditions: Table 1a
From the text: Determination of the Kamlet-Abboud-Taft parameters was based on the absorption spectrum of two dyes (N,N-diethyl-4-nitroaniline and 4-nitroaniline) in different solvents, that allow calculating corresponding values using known procedures (P. G. Jessop, D. A. Jessop, D. Fu and L. Phan, Green Chem., 2012, 14, 1245-1259).

[6] = CsCO3 (base cell blank, row r16), 80° C., 0.5 h
[7] = CsCO3 (base cell blank, row r16), 80° C., 24 h
[8] = CsCO3 (base cell blank, row r16), 80° C., 48 h
[9] = CsCO3 (base cell blank, row r17), 110° C., 0.5 h
[10] = CsCO3 (base cell blank, row r17), 110° C., 24 h
[11] = CsCO3 (base cell blank, row r17), 110° C., 48 h
[12] = CsCO3, 110° C. (row r15), 0.5 h

C1OC[C@H]2O[C@@H]3OCO[C@@H]3[C@H]2O1 [DFX, Diformylxylose]
DFX degradation [1, 6]: 1% | Reaction (Y/N) [1, 6]: Y | DFX degradation [1, 7]: 4% | Reaction (Y/N) [1, 7]: Y | DFX degradation [1, 8]: 8% | Reaction (Y/N) [1, 8]: Y | DFX degradation [1, 9]: 1% | Reaction (Y/N) [1, 9]: Y | DFX degradation [1, 10]: 7% | Reaction (Y/N) [1, 10]: Y | DFX degradation [1, 11]: 11% | Reaction (Y/N) [1, 11]: Y | DFX degradation [1, 12]: 3% | Reaction (Y/N) [1, 12]: Y | DFX degradation ([1]; CsCO3, 110° C. (row r15), 24 h): 11% | Reaction (Y/N) ([1]; CsCO3, 110° C. (row r15), 24 h): Y | DFX degradation ([1]; CsCO3, 110° C. (row r15), 48 h): 21% | Reaction (Y/N) ([1]; CsCO3, 110° C. (row r15), 48 h): Y | DFX degradation ([1]; K2CO3, 80° C., 0.5 h): 2% | Reaction (Y/N) ([1]; K2CO3, 80° C., 0.5 h): Y | DFX degradation ([1]; K2CO3, 80° C., 24 h): 3% | Reaction (Y/N) ([1]; K2CO3, 80° C., 24 h): Y | DFX degradation ([1]; K2CO3, 80° C., 48 h): 7% | Reaction (Y/N) ([1]; K2CO3, 80° C., 48 h): Y | DFX degradation ([1]; K2CO3, 110° C., 0.5 h): 2% | Reaction (Y/N) ([1]; K2CO3, 110° C., 0.5 h): Y | DFX degradation ([1]; K2CO3, 110° C., 24 h): 5% | Reaction (Y/N) ([1]; K2CO3, 110° C., 24 h): Y | DFX degradation ([1]; K2CO3, 110° C., 48 h): 13% | Reaction (Y/N) ([1]; K2CO3, 110° C., 48 h): Y | DFX degradation ([1]; KOAc, 80° C., 0.5 h): 0% | Reaction (Y/N) ([1]; KOAc, 80° C., 0.5 h): N | DFX degradation ([1]; KOAc, 80° C., 24 h): 2% | Reaction (Y/N) ([1]; KOAc, 80° C., 24 h): N | DFX degradation ([1]; KOAc, 80° C., 48 h): 3% | Reaction (Y/N) ([1]; KOAc, 80° C., 48 h): N | DFX degradation ([1]; KOAc, 110° C., 0.5 h): 1% | Reaction (Y/N) ([1]; KOAc, 110° C., 0.5 h): Y | DFX degradation ([1]; KOAc, 110° C., 24 h): 3% | Reaction (Y/N) ([1]; KOAc, 110° C., 24 h): Y | DFX degradation ([1]; KOAc, 110° C., 48 h): 5% | Reaction (Y/N) ([1]; KOAc, 110° C., 48 h): Y | DFX degradation ([1]; NEt3, 80° C., 0.5 h): 3% | Reaction (Y/N) ([1]; NEt3, 80° C., 0.5 h): Y | DFX degradation ([1]; NEt3, 80° C., 24 h): 4% | Reaction (Y/N) ([1]; NEt3, 80° C., 24 h): Y | DFX degradation ([1]; NEt3, 80° C., 48 h): 5% | Reaction (Y/N) ([1]; NEt3, 80° C., 48 h): Y | DFX degradation ([1]; NaOH, 80° C., 0.5 h): 0% | Reaction (Y/N) ([1]; NaOH, 80° C., 0.5 h): Y | DFX degradation ([1]; NaOH, 80° C., 24 h): 9% | Reaction (Y/N) ([1]; NaOH, 80° C., 24 h): Y | DFX degradation ([1]; NaOH, 80° C., 48 h): 17% | Reaction (Y/N) ([1]; NaOH, 80° C., 48 h): Y | DFX degradation ([1]; Pyridine, 80° C., 0.5 h): 0% | Reaction (Y/N) ([1]; Pyridine, 80° C., 0.5 h): N | DFX degradation ([1]; Pyridine, 80° C., 24 h): 0% | Reaction (Y/N) ([1]; Pyridine, 80° C., 24 h): N | DFX degradation ([1]; Pyridine, 80° C., 48 h): 0% | Reaction (Y/N) ([1]; Pyridine, 80° C., 48 h): N | DFX degradation ([1]; Pyridine, 110° C., 0.5 h): 0% | Reaction (Y/N) ([1]; Pyridine, 110° C., 0.5 h): N | DFX degradation ([1]; Pyridine, 110° C., 24 h): 3% | Reaction (Y/N) ([1]; Pyridine, 110° C., 24 h): Y | DFX degradation ([1]; Pyridine, 110° C., 48 h): 6% | Reaction (Y/N) ([1]; Pyridine, 110° C., 48 h): Y | DFX degradation ([1]; Triethylamine (NEt3)): less than 5% | DFX degradation, highest extent ([1]; inorganic bases K2CO3, NaOH, CsCO3, after 48 h): ≤ 21% | stability under hydrogenation conditions ([2]; 40 bar of H2, 70° C., 24 h): remained stable | stability under hydrogenation conditions ([2]; 40 bar of H2, 250° C., 3 h): remained stable | DFX recovered ([3]; 70 to 95° C., no formaldehyde): more than 80% | DFX stable ([3]; formaldehyde added): around 90% | Miscibility with Cyclohexane [4]: * | Miscibility with Hexane [4]: * | Miscibility with di-n-butyl ether [4]: * | Kamlet-Taft Parameters Π* [5]: 0.92
